In patent publication US20240018145A1, “[…]-DEPENDENT EN[…] TREATING OR […]” (priority 2020, published 2024) one finds EC50 data, which are given here for 29 compounds.

This assay deals with FLU A (PR/8/34). Put plainly: Flu A Neuraminidase Antiviral Assay. Type of assay: cell-based.

Read-outs that look alike come from different tables or passages of the source.

Take `CC1CC2N(C)C(=O)c3c(O)c(=O)ccn3N2C(C)(c2ccccc2)C1` (single isomer, unassigned) [Compound 43D, 7-hydroxy-1,3,5-trimethyl-1-phenyl-1,2,3,4,4a,5-hexahydrodipyrido[1,2-b:2′,1′-f][1,2,4]triazine-6,8-dione]: it took 0.0078 µM to reach a half-maximal effect (EC50).
Still for that read-out and setting: as for `CN1C(=O)c2c(O)c(=O)ccn2N2C1CCC(C)(CC(F)(F)F)C2c1ccccc1` (single isomer, unassigned) [Compound 71A, 7-hydroxy-2,5-dimethyl-1-phenyl-2-(2,2,2-trifluoroethyl)-1,2,3,4,4a,5-hexahydrodipyrido[1,2-b:2′,1′-f][1,2,4]triazine-6,8-dione], the figure is 5.91 µM; as for `CN1C(=O)c2c(O)c(=O)ccn2N2C(c3ccccc3)C(CCC(F)(F)F)CCC12` (single isomer, unassigned) [Compound 128B, 7-hydroxy-5-methyl-1-phenyl-2-(3,3,3-trifluoropropyl)-1,2,3,4,4a,5-hexahydrodipyrido[1,2-b:2′,1′-f][1,2,4]triazine-6,8-dione], 0.0015 µM.
On the same count and under the same terms, as for `CN1C(=O)c2c(O)c(=O)ccn2N2C(c3ccccc3)C(CC(F)(F)F)CCC12` (single isomer, unassigned) [Compound 118A, 7-hydroxy-5-methyl-1-phenyl-2-(2,2,2-trifluoroethyl)-1,2,3,4,4a,5-hexahydrodipyrido[1,2-b:2′,1′-f][1,2,4]triazine-6,8-dione], the figure is greater than 8.1 µM; as for `CN1C(=O)c2c(O)c(=O)ccn2N2C(c3ccccc3)C(CC3CC3(F)F)CCC12` (single isomer, unassigned) [Compound 114B, 2-((2,2-difluorocyclopropyl)methyl)-7-hydroxy-5-methyl-1-phenyl-1,2,3,4,4a,5-hexahydrodipyrido[1,2-b:2′,1′-f][1,2,4]triazine-6,8-dione], greater than 8.1 µM.
On the same count and under the same terms, as for `CN1C(=O)c2c(O)c(=O)ccn2N2C1CCC(=O)C2(C)c1ccccc1` (centres unmarked) [Compound 138B, 7-hydroxy-1,5-dimethyl-1-phenyl-3,4,4a,5-tetrahydrodipyrido[1,2-b:2′,1′-f][1,2,4]triazine-2,6,8(1H)-trione], the figure is 1.72 µM; as for `CN1C(=O)c2c(O)c(=O)ccn2N2C1CCCC2(C)c1c(F)cccc1F` (single isomer, unassigned) [Compound 23B, 1-(2,6-difluorophenyl)-7-hydroxy-1,5-dimethyl-1,2,3,4,4a,5-hexahydrodipyrido[1,2-b:2′,1′-f][1,2,4]triazine-6,8-dione], 0.0026 µM.
As to `CCC1(c2ccccc2)CCCC2N(C)C(=O)c3c(O)c(=O)ccn3N21` (single isomer, unassigned) [Compound 22D, 1-ethyl-7-hydroxy-5-methyl-1-phenyl-1,2,3,4,4a,5-hexahydrodipyrido[1,2-b:2′,1′-f][1,2,4]triazine-6,8-dione], the concentration for a half-maximal effect (EC50) worked out at 0.011 µM.
`CN1C(=O)c2c(O)c(=O)ccn2C2C1CCCC2(O)c1ccccc1` (single isomer, unassigned) [Compound 165A, 1,7-dihydroxy-5-methyl-1-phenyl-1,3,4,4a,5,11a-hexahydro-2H-pyrido[1,2-a]quinoxaline-6,8-dione] showed a half-maximal effective concentration (EC50) (MDCK, 48 h) greater than 8.1 µM.
`CN1C(=O)c2c(O)c(=O)ccn2N2C1CCCC21CCCc2ccccc21` (single isomer, unassigned) [Compound 32B, 7-hydroxy-5-methyl-3,3′,4,4a,4′,5-hexahydro-2H,2′H-spiro[dipyrido[1,2-b:2′,1′-f][1,2,4]triazine-1,1′-naphthalene]-6,8-dione] displayed a 50% effective concentration (EC50) of 0.156 µM.
On to `CN1C(=O)c2c(O)c(=O)ccn2N2C1CCCC2(C)c1ccncc1` (single isomer, unassigned) [Compound 31A, 7-hydroxy-1,5-dimethyl-1-(pyridin-4-yl)-1,2,3,4,4a,5-hexahydrodipyrido[1,2-b:2′,1′-f][1,2,4]triazine-6,8-dione], for which it took 0.283 µM to reach a half-maximal effect (EC50).
`CN1C(=O)c2c(O)c(=O)ccn2N2C(c3cc(F)ccc3OC(F)F)CCCC12` (single isomer, unassigned) [Compound 17B, 1-(2-(difluoromethoxy)-5-fluorophenyl)-7-hydroxy-5-methyl-1,2,3,4,4a,5-hexahydrodipyrido[1,2-b:2′,1′-f][1,2,4]triazine-6,8-dione]: the 50% effective concentration (EC50) turned out to be 0.103 µM.
Compound `CC1(c2nccs2)CCCC2N(CC(F)(F)F)C(=O)c3c(O)c(=O)ccn3N21` (single isomer, unassigned) [Compound 41A, 7-hydroxy-1-methyl-1-(thiazol-2-yl)-5-(2,2,2-trifluoroethyl)-1,2,3,4,4a,5-hexahydrodipyrido[1,2-b:2′,1′-f][1,2,4]triazine-6,8-dione] had an EC50 greater than 8.1 µM.
For `CC1(c2ccccc2)CCCC2N(CCC(F)(F)F)C(=O)c3c(O)c(=O)ccn3N21` (single isomer, unassigned) [Compound 38B, 7-hydroxy-1-methyl-1-phenyl-5-(3,3,3-trifluoropropyl)-1,2,3,4,4a,5-hexahydrodipyrido[1,2-b:2′,1′-f][1,2,4]triazine-6,8-dione], the 50% effective concentration (EC50) came to 0.0058 µM.
Still for that read-out and setting: as for `CC1(c2ccccc2)CCCC2N(CC3CC4(CCC4)C3)C(=O)c3c(O)c(=O)ccn3N21` (single isomer, unassigned) [Compound 42A, 7-hydroxy-1-methyl-1-phenyl-5-(spiro[3.3]heptan-2-ylmethyl)-1,2,3,4,4a,5-hexahydrodipyrido[1,2-b:2′,1′-f][1,2,4]triazine-6,8-dione], the figure is greater than 8.1 µM; as for `CCC1(c2ccccc2)CCCC2N(C)C(=O)c3c(O)c(=O)ccn3N21` (single isomer, unassigned) [Compound 22B, 1-ethyl-7-hydroxy-5-methyl-1-phenyl-1,2,3,4,4a,5-hexahydrodipyrido[1,2-b:2′,1′-f][1,2,4]triazine-6,8-dione], 5.29 µM; as for `CN1C(=O)c2c(O)c(=O)ccn2N2C1CCC(C)(C)C2(C)c1ccccc1` (single isomer, unassigned) [Compound 35A, 7-hydroxy-1,2,2,5-tetramethyl-1-phenyl-1,2,3,4,4a,5-hexahydrodipyrido[1,2-b:2′,1′-f][1,2,4]triazine-6,8-dione], 0.138 µM.
Same read-out and setting: then `CCC1(c2ccccc2)CCC2N(C)C(=O)c3c(O)c(=O)ccn3N21` (single isomer, unassigned) [Compound 62B, 1-ethyl-6-hydroxy-4-methyl-1-phenyl-2,3,3a,4-tetrahydro-1H-pyrido[2,1-f]pyrrolo[1,2-b][1,2,4]triazine-5,7-dione], with greater than 8.1 µM; and `CN1C(=O)c2c(O)c(=O)ccn2N2C1CCC(=O)C2(C)c1ccccc1` (centres unmarked) [Compound 138A, 7-hydroxy-1,5-dimethyl-1-phenyl-3,4,4a,5-tetrahydrodipyrido[1,2-b:2′,1′-f][1,2,4]triazine-2,6,8(1H)-trione], with 0.0197 µM.
On to `CN1C(=O)c2c(O)c(=O)ccn2N2C1CCC1OCc3ccccc3C12C` (centres unmarked) [Compound 148, 7-hydroxy-5,12a-dimethyl-2a,3,4,4a,5,12a-hexahydro-1H-isochromeno[3′,4′:5,6]pyrido[1,2-b]pyrido[2,1-f][1,2,4]triazine-6,8-dione], for which, where the note is “MDCK, 48 h”, the response was half-maximal at 0.038 µM (EC50).
Regarding `CN1C(=O)c2c(O)c(=O)ccn2N2C(c3ccccc3Cl)C(CC(F)(F)F)CCC12` (single isomer, unassigned) [Compound 119B, 1-(2-chlorophenyl)-7-hydroxy-5-methyl-2-(2,2,2-trifluoroethyl)-1,2,3,4,4a,5-hexahydrodipyrido[1,2-b:2′,1′-f][1,2,4]triazine-6,8-dione], the response was half-maximal at 0.0027 µM (EC50).
Same read-out and setting: then `O=C1c2c(O)c(=O)ccn2N2C(c3ccccc3)CCCC2N1CC1CC1` (single isomer, unassigned) [Compound 56B, 5-(cyclopropylmethyl)-7-hydroxy-1-phenyl-1,2,3,4,4a,5-hexahydrodipyrido[1,2-b:2′,1′-f][1,2,4]triazine-6,8-dione], with 6.85 µM; and `CCN1C(=O)c2c(O)c(=O)ccn2N2C(c3ccccc3)C(c3ccc(F)c(F)c3)CCC12` (single isomer, unassigned) [Compound 94B, 2-(3,4-difluorophenyl)-5-ethyl-7-hydroxy-1-phenyl-1,2,3,4,4a,5-hexahydrodipyrido[1,2-b:2′,1′-f][1,2,4]triazine-6,8-dione], with 0.0086 µM.
Where the note is “MDCK, 48 h”, `CC(=O)N[C@H]1CC[C@@H](c2ccccc2)N2[C@@H]1N(C)C(=O)c1c(O)c(=O)ccn12` [Compound 144, N-((1S,4S,4aS)-7-hydroxy-5-methyl-6,8-dioxo-1-phenyl-1,2,3,4,4a,5,6,8-octahydrodipyrido[1,2-b:2′,1′-f][1,2,4]triazin-4-yl)acetamide] displayed an EC50 greater than 0.81 µM.
Turning to `CC1(c2ccccc2)CCCC2N(CC3COC3)C(=O)c3c(O)c(=O)ccn3N21` (single isomer, unassigned) [Compound 40B, 7-hydroxy-1-methyl-5-(oxetan-3-ylmethyl)-1-phenyl-1,2,3,4,4a,5-hexahydrodipyrido[1,2-b:2′,1′-f][1,2,4]triazine-6,8-dione], the concentration for a half-maximal effect (EC50) is greater than 8.1 µM.
On the same count and under the same terms, as for `CN1C(=O)c2c(O)c(=O)ccn2N2C1CCCC2(C)c1ncc(F)cc1F` (single isomer, unassigned) [Compound 46B, 1-(3,5-difluoropyridin-2-yl)-7-hydroxy-1,5-dimethyl-1,2,3,4,4a,5-hexahydrodipyrido[1,2-b:2′,1′-f][1,2,4]triazine-6,8-dione], the figure is greater than 8.1 µM.
In the case of `CC(C)CC1CC(c2ccccc2)N2C(C1)N(C)C(=O)c1c(O)c(=O)ccn12` (centres unmarked) [Compound 130B, 7-hydroxy-3-isobutyl-5-methyl-1-phenyl-1,2,3,4,4a,5-hexahydrodipyrido[1,2-b:2′,1′-f][1,2,4]triazine-6,8-dione], the EC50 (MDCK, 48 h) turned out to be 1.41 µM.
For the compound `CC1(c2nccs2)CCCC2N(CC(F)(F)F)C(=O)c3c(O)c(=O)ccn3N21` (single isomer, unassigned) [Compound 41B, 7-hydroxy-1-methyl-1-(thiazol-2-yl)-5-(2,2,2-trifluoroethyl)-1,2,3,4,4a,5-hexahydrodipyrido[1,2-b:2′,1′-f][1,2,4]triazine-6,8-dione], the EC50 was determined as 0.0111 µM.
`CCC1(c2ccccc2)CCC2N(C)C(=O)c3c(O)c(=O)ccn3N21` (single isomer, unassigned) [Compound 62D, 1-ethyl-6-hydroxy-4-methyl-1-phenyl-2,3,3a,4-tetrahydro-1H-pyrido[2,1-f]pyrrolo[1,2-b][1,2,4]triazine-5,7-dione] returned an EC50 of 7.97 µM.
